Reference: ChEMBL document CHEMBL3244076, “N,N'-(Phenylene)dioxamic acids and their esters as antiallergy agents” (1978)

How the values were obtained:
Type in all cases: functional
[1] = test system: Rattus norvegicus; test: Antiallergic activity in anti-egg albumin homocytotropic antibody-sensitized Sprague-Dawley rat assessed as inhibition of passive cutaneous anaphylaxis reaction at 0.1 mg/kg, iv administered at the time of antigen egg albumin challenge
[2] = test system: Rattus norvegicus; test: Antiallergic activity in anti-egg albumin homocytotropic antibody-sensitized Sprague-Dawley rat assessed as inhibition of passive cutaneous anaphylaxis reaction at 1 mg/kg, iv administered at the time of antigen egg albumin challenge
[3] = test system: Rattus norvegicus; test: Antiallergic activity in anti-egg albumin homocytotropic antibody-sensitized Sprague-Dawley rat assessed as inhibition of passive cutaneous anaphylaxis reaction at 0.01 mg/kg, iv administered at the time of antigen egg albumin challenge
[4] = test system: Rattus norvegicus; test: Antiallergic activity in anti-egg albumin homocytotropic antibody-sensitized Sprague-Dawley rat assessed as inhibition of passive cutaneous anaphylaxis reaction at 50 mg/kg, po administered 20 mins prior to antigen egg albumin challenge
[5] = test system: Rattus norvegicus; test: Antiallergic activity in anti-egg albumin homocytotropic antibody-sensitized Sprague-Dawley rat assessed as inhibition of passive cutaneous anaphylaxis reaction at 50 mg/kg, po administered 5 mins prior to antigen egg albumin challenge
[6] = test system: Rattus norvegicus; test: Antiallergic activity in anti-egg albumin homocytotropic antibody-sensitized Sprague-Dawley rat assessed as inhibition of passive cutaneous anaphylaxis reaction at 50 mg/kg, po administered 120 mins prior to antigen egg albumin challenge
[7] = test system: Rattus norvegicus; test: Antiallergic activity in anti-egg albumin homocytotropic antibody-sensitized Sprague-Dawley rat assessed as inhibition of passive cutaneous anaphylaxis reaction at 50 mg/kg, po administered 60 mins prior to antigen egg albumin challenge
[8] = test system: Rattus norvegicus; test: Antiallergic activity in anti-egg albumin homocytotropic antibody-sensitized Sprague-Dawley rat assessed as time of peak action for inhibition of passive cutaneous anaphylaxis reaction at 50 mg/kg, po administered prior to antigen egg albumin challenge

| Structure (SMILES) | inhibition in vivo at 1 mg/kg [2] | inhibition in vivo at 50 mg/kg [4] | inhibition in vivo at 50 mg/kg [5] | inhibition in vivo at 50 mg/kg [7] | other results |
| --- | --- | --- | --- | --- | --- |
| O=C(O)C(=O)Nc1ccc(F)c(NC(=O)C(=O)O)c1 | 100% |  |  |  | inhibition in vivo at 0.1 mg/kg [1]: 41% |
| COc1ccc(NC(=O)C(=O)O)cc1NC(=O)C(=O)O | 100% |  |  |  | inhibition in vivo at 0.1 mg/kg [1]: 0% |
| N#Cc1cc(NC(=O)C(=O)O)cc(NC(=O)C(=O)O)c1 |  |  |  |  | inhibition in vivo at 0.01 mg/kg [3]: 57%; inhibition in vivo at 0.1 mg/kg [1]: 90% |
| CCOC(=O)C(=O)Nc1cc(C(=O)O)cc(NC(=O)C(=O)OCC)c1C |  | 0% | 0% | 0% | inhibition in vivo at 50 mg/kg [6]: 0% |
| CCOC(=O)C(=O)Nc1cc(C#N)c(Cl)c(NC(=O)C(=O)OCC)c1 |  | 20% | 100% | 0% |  |
| CCOC(=O)C(=O)Nc1c([N+](=O)[O-])cc([N+](=O)[O-])c(NC(=O)C(=O)OCC)c1Cl |  | 25% |  | 0% |  |
| O=C(O)C(=O)Nc1cccc(NC(=O)C(=O)O)c1 | 82% |  |  |  | inhibition in vivo at 0.01 mg/kg [3]: 0%; inhibition in vivo at 0.1 mg/kg [1]: 73% |
| CCOC(=O)C(=O)Nc1cc(NC(C)=O)cc(NC(=O)C(=O)OCC)c1 |  | 1% | 6% | 0% | inhibition in vivo at 50 mg/kg [6]: 24% |
| NC(=O)c1cc(NC(=O)C(=O)O)c(Cl)c(NC(=O)C(=O)O)c1 | 90% |  |  |  | inhibition in vivo at 0.01 mg/kg [3]: 0%; inhibition in vivo at 0.1 mg/kg [1]: 28% |
| O=C(O)C(=O)Nc1cc(CS(=O)O)cc(NC(=O)C(=O)O)c1Cl | 85% |  |  |  | inhibition in vivo at 0.1 mg/kg [1]: 10% |
| CCOC(=O)C(=O)Nc1cc(NC(=O)C(=O)OCC)c([N+](=O)[O-])cc1[N+](=O)[O-] |  | 17% |  | 9% |  |
| O=C(O)C(=O)Nc1cc(Cl)c(NC(=O)C(=O)O)cc1Cl | 73% |  |  |  |  |
| CCOC(=O)C(=O)Nc1cc(C(=O)OC)cc(NC(=O)C(=O)OCC)c1Cl |  | 7% |  | 0% | inhibition in vivo at 50 mg/kg [6]: 0% |
| CCOC(=O)C(=O)Nc1ccc(OC)c(NC(=O)C(=O)OCC)c1 |  | 70% | 50% | 11% | inhibition in vivo at 50 mg/kg [6]: 45% |
| N#Cc1cc(NC(=O)C(=O)O)ccc1NC(=O)C(=O)O | 45% |  |  |  |  |
| CC(=O)c1cc(NC(=O)C(=O)O)c(Cl)c(NC(=O)C(=O)O)c1 | 88% |  |  |  | inhibition in vivo at 0.01 mg/kg [3]: 0%; inhibition in vivo at 0.1 mg/kg [1]: 22% |
| CCOC(=O)C(=O)Nc1cc(C(N)=O)cc(NC(=O)C(=O)OCC)c1Cl |  | 49% | 85% |  |  |
| CCOC(=O)C(=O)Nc1cc(NC(=O)C(=O)OCC)c(Cl)cc1Cl |  | 50% |  | 25% |  |
| O=C(O)C(=O)Nc1cc(NC(=O)C(=O)O)c(Cl)cc1Cl | 81% |  |  |  | inhibition in vivo at 0.01 mg/kg [3]: 0%; inhibition in vivo at 0.1 mg/kg [1]: 25% |
| CCOC(=O)C(=O)Nc1cc(C(F)(F)F)cc(NC(=O)C(=O)OCC)c1C#N |  | 25% | 50% | 0% |  |
| CCOC(=O)C(=O)Nc1cc(C(=O)O)cc(NC(=O)C(=O)OCC)c1Cl |  | 41% | 15% | 15% | inhibition in vivo at 50 mg/kg [6]: 9% |
| CCOC(=O)C(=O)Nc1cccc(NC(=O)C(=O)OCC)c1Cl |  | 17% | 53% | 1.8% | Time [8]: 5 min |
| CCOC(=O)C(=O)Nc1cc(C(F)(F)F)cc(NC(=O)C(=O)OCC)c1Cl |  | 10% | 10% | 4% |  |

| Structure (SMILES) | inhibition in vivo at 1 mg/kg [2] | inhibition in vivo at 50 mg/kg [4] | inhibition in vivo at 50 mg/kg [5] | inhibition in vivo at 50 mg/kg [7] | other results |
| --- | --- | --- | --- | --- | --- |
| CCOC(=O)C(=O)Nc1ccc(C)c(NC(=O)C(=O)OCC)c1 |  | 38% | 17% | 12% |  |
| CCOC(=O)C(=O)Nc1cc(-c2ccccc2)cc(NC(=O)C(=O)OCC)c1Cl |  | 25% | 25% |  |  |
| O=C(O)C(=O)Nc1ccc(NC(=O)C(=O)O)cc1 | 18% |  |  |  |  |
| O=C(O)C(=O)Nc1cc(-c2ccccc2)cc(NC(=O)C(=O)O)c1Cl | 94% |  |  |  | inhibition in vivo at 0.01 mg/kg [3]: 44%; inhibition in vivo at 0.1 mg/kg [1]: 87% |
| CCOC(=O)C(=O)Nc1cc(NC(=O)C(=O)OCC)cc(C(=O)O)c1 |  | 0% | 14% | 0% | inhibition in vivo at 50 mg/kg [6]: 20% |
| CCOC(=O)C(=O)Nc1cccc(NC(=O)C(=O)OCC)c1C(=O)OC |  | 27% |  | 15% | inhibition in vivo at 50 mg/kg [6]: 0% |
| CCOC(=O)C(=O)Nc1cccc(NC(=O)C(=O)OCC)c1F |  |  |  | 0% |  |
| N#Cc1ccc(NC(=O)C(=O)O)cc1NC(=O)C(=O)O | 87% |  |  |  | inhibition in vivo at 0.1 mg/kg [1]: 8% |
| CCCCc1ccc(NC(=O)C(=O)OCC)cc1NC(=O)C(=O)OCC |  | 0% | 0% | 5% | inhibition in vivo at 50 mg/kg [6]: 0% |
| CCOC(=O)C(=O)Nc1cc(NC(=O)C(=O)OCC)c(Cl)c(-c2ccccc2)c1 |  | 10% | 72% | 51% |  |
| CCOC(=O)C(=O)Nc1cccc(NC(=O)C(=O)OCC)c1C |  | 53% | 28% |  |  |
| CCOC(=O)C(=O)Nc1cc(C(C)=O)cc(NC(=O)C(=O)OCC)c1Cl |  | 14% |  | 37% | inhibition in vivo at 50 mg/kg [6]: 31% |
| CCOC(=O)C(=O)Nc1cc(NC(=O)C(=O)OCC)cc(NC(=O)C(=O)OCC)c1 |  | 0% |  | 5% | inhibition in vivo at 50 mg/kg [6]: 0% |
| NC(=O)c1cc(NC(=O)C(=O)O)cc(NC(=O)C(=O)O)c1 | 91% |  |  |  | inhibition in vivo at 0.1 mg/kg [1]: 17% |
| CCOC(=O)C(=O)Nc1cc(C(=O)OC)c(Cl)c(NC(=O)C(=O)OCC)c1Cl |  | 0% |  | 0% | inhibition in vivo at 50 mg/kg [6]: 0% |
| CCOC(=O)C(=O)Nc1cc(S(C)(=O)=O)cc(NC(=O)C(=O)OCC)c1Cl |  | 0% | 0% | 0% |  |
| CCOC(=O)C(=O)Nc1cc(NC(=O)C(=O)OCC)cc(OC)c1 |  | 4% |  | 0% | inhibition in vivo at 50 mg/kg [6]: 29% |
| CC(=O)Nc1cc(NC(=O)C(=O)O)cc(NC(=O)C(=O)O)c1 | 47% |  |  |  | inhibition in vivo at 0.01 mg/kg [3]: 0%; inhibition in vivo at 0.1 mg/kg [1]: 11% |
| CCOC(=O)C(=O)Nc1ccc(F)c(NC(=O)C(=O)OCC)c1 |  | 64% | 74% | 18% |  |
| CCOC(=O)C(=O)Nc1cc(NC(=O)C(=O)OCC)cc([N+](=O)[O-])c1 |  | 0% | 0% | 6% |  |
| CCOC(=O)C(=O)Nc1cc(C)cc(NC(=O)C(=O)OCC)c1Cl |  | 26% |  | 0% | inhibition in vivo at 50 mg/kg [6]: 3% |
| O=C(O)C(=O)Nc1cccc(NC(=O)C(=O)O)c1Cl | 75% |  |  |  | inhibition in vivo at 0.1 mg/kg [1]: 32% |
| CCOC(=O)C(=O)Nc1cccc(NC(=O)C(=O)OCC)c1OC |  | 11% | 72% | 22% |  |
